# Data published in US20060241101A1, “Novel benzimidazole derivatives and pharmaceutical compositions comprising these compounds” (priority 2003, published 2006).
# Structures can show the parent of a compound that is named as a salt.
row,melting point,Compound
1,92 to 95 °C,"CCCCOC(=O)c1ccc2c(c1)ncn2-c1cccc(N2CCN(CCOCC)CC2)c1 (as salt: HCl) [Compound 1c, n-Butyl 1-(3-(4-(ethoxyethyl)-1-piperazinyl)-phenyl)-benzimidazole-5-carboxylate]"
2,159 to 162 °C,"COCCN1CCN(c2cccc(-n3cnc4cc(C(=O)OCCO)ccc43)c2)CC1 (as salt: HCl) [Compound 1f, 2-Hydroxyethyl 1-(3-(4-(methoxyethyl)-1-piperazinyl)-phenyl)-benzimidazole-5-carboxylate]"
3,154 to 160 °C,"CCOCCN1CCN(c2cccc(-n3cnc4cc(C(=O)OCC(C)C)ccc43)c2)CC1 (as salt: HCl) [Compound 1d, iso-Butyl 1-(3-(4-(ethoxyethyl)-1-piperazinyl)-phenyl)-benzimidazole-5-carboxylate]"
4,173 to 178 °C,"COCCOC(=O)c1ccc2c(c1)ncn2-c1cccc(N2CCN(CCOC)CC2)c1 (as salt: HCl) [Compound 1e, 2-Methoxyethyl 1-(3-(4-(methoxyethyl)-1-piperazinyl)-phenyl)-benzimidazole-5-carboxylate]"
5,148 to 152 °C,"CCCCOC(=O)c1ccc2c(c1)ncn2-c1cccc(N2CCN(CCOC)CC2)c1 (as salt: HCl) [Compound 1g, n-Butyl 1-(3-(4-(methoxyethyl)-1-piperazinyl)-phenyl)-benzimidazole-5-carboxylate]"
